Experimental data from the supplement of paper PMC4862054.

Experiments:
Conditions in all cases: incubation time: 72 h
[1] = tested on: HCC1937; assay: normalised response (% of control), CellTox Green; higher = less cell death (100 = DMSO, 0 = benzethonium chloride kill control)
Summary of the method: (§1)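 Values are normalised signals, each belonging to one concentration of the series. Breast cancer cells (20 µl suspension) were seeded into 384-well plates with compound at 5 concentrations in 10-fold steps over a compound-specific 10,000-fold range and incubated 72 h. Readouts were CellTox Green fluorescence (485/520 nm), then CellTiter-Glo luminescence after 10 min at room temperature, with each plate set to 0.1 % DMSO as 100 and a positive kill control as 0.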

[2] = tested on: HCC1599; assay: as above
Summary of the method: as §1

[3] = tested on: Hs578T; assay: as above
Summary of the method: as §1

[4] = tested on: MDA-MB-436; assay: as above
Summary of the method: as §1

[5] = tested on: DU-4475; assay: as above
Summary of the method: as §1

[6] = tested on: CAL-85-1; assay: as above
Summary of the method: as §1

[7] = tested on: HDQ-P1; assay: as above
Summary of the method: as §1

[8] = tested on: CAL-51; assay: as above
Summary of the method: as §1

[9] = tested on: BT-549; assay: as above
Summary of the method: as §1

[10] = tested on: MFM-223; assay: as above
Summary of the method: as §1

[11] = tested on: MDA-MB-453; assay: as above
Summary of the method: as §1

[12] = tested on: MDA-MB-231; assay: as above
Summary of the method: as §1

[13] = tested on: BT-474; assay: as above
Summary of the method: as §1

[14] = tested on: CAL-120; assay: as above
Summary of the method: as §1

[15] = tested on: MCF-10A; assay: as above
Summary of the method: as §1

[16] = tested on: MDA-MB-468; assay: as above
Summary of the method: as §1

[17] = tested on: HCC1143; assay: as above
Summary of the method: as §1

[18] = tested on: CAL-148; assay: as above
Summary of the method: as §1

[19] = tested on: HCC1937; assay: normalised viability (% of control), CellTiter-Blue; higher = more viable cells (about 100 = DMSO control)
Description: (§2)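 DSRT, CellTiter-Blue viability, 72 h incubation. Signal is normalised to DMSO and benzethonium chloride controls. Value is the normalised response at dose 3.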

[20] = tested on: HCC1599; assay: as above
Description: as §2

[21] = tested on: Hs578T; assay: as above
Description: as §2

[22] = tested on: DU-4475; assay: as above
Description: as §2

[23] = tested on: CAL-85-1; assay: as above
Description: as §2

[24] = tested on: CAL-51; assay: as above
Description: as §2

[25] = tested on: SK-BR-3; assay: as above
Description: as §2

[26] = tested on: MDA-MB-453; assay: as above
Description: as §2

[27] = tested on: MDA-MB-231; assay: as above
Description: as §2

[28] = tested on: CAL-120; assay: as above
Description: as §2

[29] = tested on: MDA-MB-468; assay: as above
Description: as §2

[30] = tested on: CAL-148; assay: as above
Description: as §2

## CC1(C)CNc2cc(NC(=O)c3cccnc3NCc3ccncc3)ccc21 [Motesanib] (10000 nM)
[1]
  normalised response: 98.6%
[2]
  normalised response: 108%
[3]
  normalised response: 86.8%
[4]
  normalised response: 109%
[5]
  normalised response: 101%
[6]
  normalised response: 94.5%
[7]
  normalised response: 94.1%
[8]
  normalised response: 101%
[9]
  normalised response: 103%
[10]
  normalised response: 97.2%
[11]
  normalised response: 101%
[12]
  normalised response: 114%
[13]
  normalised response: 98.2%
[14]
  normalised response: 96.7%
[15]
  normalised response: 80.4%
[16]
  normalised response: 123%
[17]
  normalised response: 94%
[18]
  normalised response: 102%

## C[C@]1(O)C[C@@H](c2nc(-c3ccc4ccc(-c5ccccc5)nc4c3)c3c(N)nccn32)C1 [OSI-906]
[19]; 100 nM
  normalised viability: 92.5%
[20]; 100 nM
  normalised viability: 94.9%
[21]; 100 nM
  normalised viability: 74.8%
[22]; 10 nM
  normalised viability: 94.1%
[23]; 10 nM
  normalised viability: 104%
[24]; 10 nM
  normalised viability: 97.4%
[25]; 100 nM
  normalised viability: 78.3%
[26]; 10 nM
  normalised viability: 86.6%
[27]; 100 nM
  normalised viability: 83.8%
[28]; 100 nM
  normalised viability: 90%
[29]; 100 nM
  normalised viability: 98.6%
[30]; 10 nM
  normalised viability: 101%

## CC[C@@H]1C(=O)OC[C@@H]1Cc1cncn1C [Pilocarpine]
[19]; 400 nM
  normalised viability: 95.1%
[20]; 400 nM
  normalised viability: 99.6%
[21]; 400 nM
  normalised viability: 110%
[22]; 40 nM
  normalised viability: 108%
[23]; 40 nM
  normalised viability: 98%
[24]; 40 nM
  normalised viability: 102%
[25]; 400 nM
  normalised viability: 103%
[26]; 40 nM
  normalised viability: 102%
[27]; 400 nM
  normalised viability: 93.3%
[28]; 400 nM
  normalised viability: 107%
[29]; 400 nM
  normalised viability: 99.6%
[30]; 40 nM
  normalised viability: 97.4%

## COc1cc(F)c(F)c(Nc2ccc(I)cc2F)c1NS(=O)(=O)C1(C[C@H](O)CO)CC1 [RDEA119]
[19]; 100 nM
  normalised viability: 87.7%
[20]; 100 nM
  normalised viability: 87.4%
[21]; 100 nM
  normalised viability: 76%
[22]; 10 nM
  normalised viability: 86%
[23]; 10 nM
  normalised viability: 97.3%
[24]; 10 nM
  normalised viability: 91.2%
[25]; 100 nM
  normalised viability: 90.7%
[26]; 10 nM
  normalised viability: 78.3%
[27]; 100 nM
  normalised viability: 45%
[28]; 100 nM
  normalised viability: 93.7%
[29]; 100 nM
  normalised viability: 86.1%
[30]; 10 nM
  normalised viability: 93.6%

## CC(C)(C)c1cnc(CSc2cnc(NC(=O)C3CCNCC3)s2)o1 [SNS-032] (1000 nM)
[1]
  normalised response: 115%
[2]
  normalised response: 71.2%
[3]
  normalised response: 25%
[4]
  normalised response: 102%
[5]
  normalised response: 86.1%
[6]
  normalised response: 17.1%
[7]
  normalised response: 62.6%
[8]
  normalised response: 55.9%
[9]
  normalised response: 80.4%
[10]
  normalised response: 63.5%
[11]
  normalised response: 99.2%
[12]
  normalised response: -97.4%
[13]
  normalised response: 90%
[14]
  normalised response: 88.6%
[15]
  normalised response: 24%
[16]
  normalised response: 84%
[17]
  normalised response: 86.3%
[18]
  normalised response: 96.3%

## CC(C)(C)c1cnc(CSc2cnc(NC(=O)C3CCNCC3)s2)o1 [SNS-032] (10000 nM)
[1]
  normalised response: 76.1%
[2]
  normalised response: 77.1%
[3]
  normalised response: 41.9%
[4]
  normalised response: 94.2%
[5]
  normalised response: 91.7%
[6]
  normalised response: 42.8%
[7]
  normalised response: 68.4%
[8]
  normalised response: 81.1%
[9]
  normalised response: 76%
[10]
  normalised response: 76.7%
[11]
  normalised response: 99.2%
[12]
  normalised response: -26.5%
[13]
  normalised response: 93%
[14]
  normalised response: 94.1%
[15]
  normalised response: 26.3%
[16]
  normalised response: 44.3%
[17]
  normalised response: 76.9%
[18]
  normalised response: 91.3%

## Cn1cnc2c(F)c(Nc3ccc(Br)cc3Cl)c(C(=O)NOCCO)cc21 [Selumetinib] (1000 nM)
[1]
  normalised response: 88.9%
[2]
  normalised response: 89.4%
[3]
  normalised response: 100%
[4]
  normalised response: 80.4%
[5]
  normalised response: 60.8%
[6]
  normalised response: 77.5%
[7]
  normalised response: 77.2%
[8]
  normalised response: 103%
[9]
  normalised response: 116%
[10]
  normalised response: 93.2%
[11]
  normalised response: 104%
[12]
  normalised response: 43.8%
[13]
  normalised response: 96.9%
[14]
  normalised response: 81.4%
[15]
  normalised response: 90.4%
[16]
  normalised response: 108%
[17]
  normalised response: 70.1%
[18]
  normalised response: 99.2%

## Cn1cnc2c(F)c(Nc3ccc(Br)cc3Cl)c(C(=O)NOCCO)cc21 [Selumetinib] (10000 nM)
[1]
  normalised response: 98.3%
[2]
  normalised response: 108%
[3]
  normalised response: 89.5%
[4]
  normalised response: 101%
[5]
  normalised response: 62.3%
[6]
  normalised response: 108%
[7]
  normalised response: 75%
[8]
  normalised response: 101%
[9]
  normalised response: 99.7%
[10]
  normalised response: 100%
[11]
  normalised response: 101%
[12]
  normalised response: 21.6%
[13]
  normalised response: 99.4%
[14]
  normalised response: 87.3%
[15]
  normalised response: 74.4%
[16]
  normalised response: -53.9%
[17]
  normalised response: 97%
[18]
  normalised response: 96%

## Nc1nc2[nH]cnc2c(=S)[nH]1 [Thioguanine] (10000 nM)
[1]
  normalised response: 83.7%
[2]
  normalised response: 96.2%
[3]
  normalised response: 133%
[4]
  normalised response: 93.2%
[5]
  normalised response: 91.9%
[6]
  normalised response: 97.4%
[7]
  normalised response: 101%
[8]
  normalised response: 80.3%
[9]
  normalised response: 87%
[10]
  normalised response: 103%
[11]
  normalised response: 97.6%
[12]
  normalised response: 85.2%
[13]
  normalised response: 103%
[14]
  normalised response: 97.7%
[15]
  normalised response: 108%
[16]
  normalised response: 51.8%
[17]
  normalised response: 106%
[18]
  normalised response: 92.2%
